Data taken from US20240166664A1, “TRIHETEROCYCLIC COMPOUND, PREPARATION METHOD THEREFOR, AND APPLICATION THEREOF” (SHANGHAI APEIRON THERAPEUTICS COMPANY LIMITED, priority 2021, published 2024).
Where two headings read alike, the source gives them in different places.

Assays:
[1] = target: T1, PARP7 (Homo sapiens, UniProt Q7Z3E1); test: Test of inhibitory activity against PARP7 enzyme (PARP7 FLAG-tag, Probe A, time-resolved fluorescence); assay type: biochemical; conditions: PARP7 12 nM, Probe A 2 nM, 1 hr room temperature
T1 construct: purchased BPS 80527
T1 sequence (Q7Z3E1 1-657): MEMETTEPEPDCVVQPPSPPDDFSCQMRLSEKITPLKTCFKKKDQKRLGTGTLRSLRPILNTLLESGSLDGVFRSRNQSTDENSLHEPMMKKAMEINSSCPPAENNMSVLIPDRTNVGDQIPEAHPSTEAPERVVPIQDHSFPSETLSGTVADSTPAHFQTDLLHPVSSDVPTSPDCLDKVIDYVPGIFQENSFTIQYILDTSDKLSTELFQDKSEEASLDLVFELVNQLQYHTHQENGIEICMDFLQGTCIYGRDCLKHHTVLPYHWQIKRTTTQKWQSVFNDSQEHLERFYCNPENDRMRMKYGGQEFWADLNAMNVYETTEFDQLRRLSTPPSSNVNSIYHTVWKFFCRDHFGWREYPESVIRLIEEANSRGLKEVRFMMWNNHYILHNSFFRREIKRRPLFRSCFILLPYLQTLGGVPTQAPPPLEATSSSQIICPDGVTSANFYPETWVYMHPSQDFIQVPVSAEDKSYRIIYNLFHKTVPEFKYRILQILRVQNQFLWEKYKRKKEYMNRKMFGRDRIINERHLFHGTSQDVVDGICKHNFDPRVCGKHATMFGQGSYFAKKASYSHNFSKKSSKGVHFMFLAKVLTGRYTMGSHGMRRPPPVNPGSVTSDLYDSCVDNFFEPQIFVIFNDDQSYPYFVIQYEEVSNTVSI

[2] = system: NCI-H1373 cells; test: Cell proliferation inhibition assay (CTG method); assay type: cell-based, human; conditions: NCI-H1373 cells, 6 days incubation, CTG method, read-out: IC50 (nM) for NCI-H1373 cell viability
[3] = system: tumor; conditions: preclinical experimental data; cited from earlier work

Structure (SMILES) | IC50 [1] [nM] | IC50 ([2]; Homo sapiens, NCI-H1373, 144 h) [nM] | IC50 [2] [nM] | anti-tumor growth effect [3] | tumor-specific adaptive immune memory [3]
C[C@@H](COCCC(=O)N1CCN2c3ncc(C(F)(F)F)cc3N(CCO)C(=O)[C@@H]2C1)Nc1cn[nH]c(=O)c1C(F)(F)F [Compound 41, (S)-5-(2-hydroxyethyl)-8-(3-((S)-2-((6-oxo-5-(trifluoromethyl)-1,6-dihydropyridazin-4-yl)amino)propoxy)propionyl)-3-(trifluoromethyl)-7,8,9,10-tetrahydro-5H-pyrazino[1,2-a]pyrido[3,2-e]pyrazino-6(6aH)-one] | < 10 | 500 to 5000 | – | – | –
C[C@@H](COCCC(=O)N1CCN2c3ncc(C(F)(F)F)cc3C(=O)N(C)C[C@H]2C1)Nc1cn[nH]c(=O)c1C(F)(F)F [Compound 42, (S)-6-methyl-9-(3-((S)-2-((6-oxo-5-(trifluoromethyl)-1,6-dihydropyridazin-4-yl)amino)propoxy)propionyl)-3-(trifluoromethyl)-7,7a, 8,9,10,11-hexahydropyrazino[1,2-a]pyrido[3,2-f][1,4]diazepan-5(6H)-one] | < 10 | 500 to 5000 | – | – | –
C[C@@H](COCCC(=O)N1CCN2c3ncc(C(F)(F)F)cc3N(C)CCC2C1)Nc1cn[nH]c(=O)c1C(F)(F)F (stereo partly drawn) [Compound 43, 5-((((2S)-1-(3-(5-methyl-3-(trifluoromethyl))-6,7,7a, 8,10,11-hexahydropyrazino[1,2-d]pyrido[3,2-b] [1,4]diazepine-9(5H)-yl)-3-oxopropoxy)prop-2-yl)amino)-4-(trifluoromethyl)pyridazin-3(2H)-one] | < 10 | 100 to 500 | – | – | –
C[C@@H](COCCC(=O)N1CCN2c3ncc(C(F)(F)F)nc3OCC[C@H]2C1)Nc1cn[nH]c(=O)c1C(F)(F)F [Compound 47, 5-(((S)-1-(3-oxo-3-((S)-3-(trifluoromethyl)-6,7,7a, 8, 10, 11-hexahydro-9H-bipyrazino[2,3-b:1′, 2′-d][1, 4]oxazepane-9-yl)propoxy)prop-2-yl)amino)-4-(trifluoromethyl)pyridazin-3(2H)-one] | < 10 | < 100 | – | – | –
C[C@@H](COCCC(=O)N1CCN2c3ncc(C(F)(F)F)nc3N(C)C(=O)[C@H]2C1)Nc1cn[nH]c(=O)c1C(F)(F)F [Compound 48, (R)-5-methyl-8-(3-((S)-2-((6-oxo-5-(trifluoromethyl)-1,6-dihydropyridazin-4-yl)amino)propoxy)propionyl)-3-(trifluoromethyl)-7,8,9, 10-tetrahydro-5H-bipyrazino[1,2-a:2′, 3′-e]pyrazin-6(6aH)-one] | < 10 | < 100 | – | – | –
C[C@@H](COCCC(=O)N1CCN2c3ncc(C(F)(F)F)c(C#N)c3OC[C@H]2C1)Nc1cn[nH]c(=O)c1C(F)(F)F [Compound 51, (R)-8-(3-((S)-2-((6-oxo-5-(trifluoromethyl)-1,6-dihydropyridazin-4-yl)amino)propoxy)propionyl)-3-(trifluoromethyl)-6,6a, 7,8,9, 10-hexahydropyrazino[1,2-d]pyrido[3,2-b][1, 4]oxazinane-4-carbonitrile] | < 10 | 100 to 500 | – | – | –
Cc1c(C(F)(F)F)cnc2c1OC[C@H]1CN(C(=O)CCOC[C@H](C)Nc3cn[nH]c(=O)c3C(F)(F)F)CCN21 [Compound 52, 5-(((S)-1-(3-((R)-4-methyl-3-(trifluoromethyl)-6a, 7,9, 10-tetrahydropyrazino[1,2-d]pyrido[3,2-b][1, 4]oxazinane-8(6H)-yl)-3-oxopropoxy)prop-2-yl)amino)-4-(trifluoromethyl)pyridazin-3(2H)-one] | < 10 | < 100 | – | – | –
C[C@@H](COCCC(=O)N1CCN2c3ncc(C#N)cc3N(C)C(=O)[C@@H]2C1)Nc1cn[nH]c(=O)c1C(F)(F)F [Compound 53] | < 10 | 100 to 500 | – | – | –
C[C@@H](COCCC(=O)N1CCN2c3ncc(C(F)(F)F)nc3N(C)C(=O)[C@@H]2C1)Nc1cn[nH]c(=O)c1C(F)(F)F [Compound 58, (S)-5-methyl-8-(3-((S)-2-((6-oxo-5-(trifluoromethyl)-1,6-dihydropyridazin-4-yl)amino)propoxy)propionyl)-3-(trifluoromethyl)-7,8,9, 10-tetrahydro-5H-bipyrazino[1,2-a:2′, 3′-e]pyrazin-6(6aH)-one] | < 10 | < 100 | – | – | –
C[C@@H](COCCC(=O)N1CCN2c3ncc(C(F)(F)F)cc3C=C[C@H]2C1)Nc1cn[nH]c(=O)c1C(F)(F)F [Compound 60] | < 10 | – | < 100 | – | –
C[C@@H](COC[C@@H](F)C(=O)N1CCN2c3ncc(C(F)(F)F)cc3N(C)C(=O)[C@@H]2C1)Nc1cn[nH]c(=O)c1C(F)(F)F [Compound 65, (S)-8-((R)-2-fluoro-3-((S)-2-((6-oxo-5-(trifluoromethyl)-1,6-dihydropyridazin-4-yl)amino)propoxy)propionyl)-5-methyl-3-(trifluoromethyl)-7,8,9, 10-tetrahydro-5H-pyrazino[1,2-a]pyrido[3,2-e]pyrazin-6(6aH)-one] | < 10 | < 100 | – | – | –
C[C@@H](COC[C@H](F)C(=O)N1CCN2c3ncc(C(F)(F)F)cc3N(C)C(=O)[C@@H]2C1)Nc1cn[nH]c(=O)c1C(F)(F)F [Compound 66, (S)-8-((S)-2-fluoro-3-((S)-2-((6-oxo-5-(trifluoromethyl)-1,6-dihydropyridazin-4-yl)amino)propoxy)propionyl)-5-methyl-3-(trifluoromethyl)-7,8,9, 10-tetrahydro-5H-pyrazino[1,2-a]pyrido[3,2-e]pyrazin-6(6aH)-one] | < 10 | 500 to 5000 | – | – | –
C[C@@H](COC[C@H](O)C(=O)N1CCN2c3ncc(C(F)(F)F)cc3C=C[C@@H]2C1)Nc1cn[nH]c(=O)c1C(F)(F)F [Compound 71] | < 10 | < 100 | – | – | –
C[C@@H](COC[C@@H](O)C(=O)N1CCN2c3ncc(C(F)(F)F)cc3C=C[C@@H]2C1)Nc1cn[nH]c(=O)c1C(F)(F)F [Compound 72] | < 10 | < 100 | – | – | –
C[C@@H](COC[C@@H](F)C(=O)N1CCN2c3ncc(C(F)(F)F)cc3C=C[C@@H]2C1)Nc1cn[nH]c(=O)c1C(F)(F)F [Compound 73] | < 10 | < 100 | – | – | –
C[C@@H](COC[C@H](F)C(=O)N1CCN2c3ncc(C(F)(F)F)cc3C=C[C@@H]2C1)Nc1cn[nH]c(=O)c1C(F)(F)F [Compound 74] | < 10 | < 100 | – | – | –
C[C@@H](COCCC(=O)N1CCN2c3nc(N)c(C(F)(F)F)cc3COC[C@H]2C1)Nc1cn[nH]c(=O)c1C(F)(F)F [Compound 77, 5-(((S)-1-(3-((R)-2-amino-3-(trifluoromethyl)-7a, 8, 10, 11-tetrahydro-5H-pyrazino[2,1-c]pyrido[2,3-e][1, 4]oxazepane-9(7H)-yl)-3-oxypropoxy)prop-2-yl)amino)-4-(trifluoromethyl)pyridazin-3(2H)-one] | < 10 | > 5000 | – | – | –
C[C@@H](COCCC(=O)N1CCN2c3ncc(C(F)(F)F)cc3CNC(=O)[C@H]2C1)Nc1cn[nH]c(=O)c1C(F)(F)F [Compound 79, (R)-9-(3-((S)-2-((6-oxo-5-(trifluoromethyl)-1,6-dihydropyridazin-4-yl)amino)propoxy)propionyl)-3-(trifluoromethyl)-5,6,8,9, 10, 11-hexahydropyrazino[1,2-a]pyrido[3,2-f][1, 4]diazepin-7(7aH)-one] | < 10 | 500 to 5000 | – | – | –
C[C@@H](COCCC(=O)N1CCN(c2ncc(C(F)(F)F)cn2)CC1)Nc1cn[nH]c(=O)c1C(F)(F)F [RBN-2397] | – | – | – | potent anti-tumor growth effect increasing in a dose-dependent manner | induces tumor-specific adaptive immune memory
